Tested on: HCT116 colon carcinoma cells
Assay: HCT116 colon carcinoma cell growth inhibition (WST-1, 72 hr)
Assay type: cell-based, human
Conditions: 72 hr exposure
Description: HCT116 Colon Carcinoma Cell Growth Inhibition
HCT116 colon carcinoma cells were grown monolayer culture in RPMI 1640 medium supplemented with 10% fetal bovine serum and 1% penicillin-streptomycin (GibcoBRL, Grand Island, N.Y.). HCT116 cells in exponential growth phase were exposed to various concentrations of the test compounds at 37° C. for 72 hr in 5% carbon dioxide/air. After exposure to the agent, the cells were washed with 0.9% phosphate buffered saline. Growth inhibition was determined using WST-1 cell proliferation reagent as described above. The results are expressed as the growth fraction of treated cells compared with control cultures. Representative compounds of the present invention were tested for efficacy against the human colon HCT116 tumor cells.

Compound	IC50 [µM]
CSc1ccc(-c2ccc(S(=O)(=O)NC(=O)c3ccc(Cl)cc3Cl)cc2)cc1 [Example 108, N-[2,4-dichlorobenzoyl]-4-(1-methylsulfanylo-phen-4-yl)phenylsulfonamide]	16
CC(=O)c1cccc(-c2ccc(S(=O)(=O)NC(=O)c3ccc(Cl)cc3Cl)cc2)c1 [Example 109, N-[2,4-dichlorobenzoyl]-4-3′-acetyl-biphenylsulfonamide]	25.1
COC(=O)c1ccc(S(=O)(=O)NC(=O)c2ccc(Cl)cc2Br)cc1 [Example 30, N-[2-bromo-4-chlorobenzoyl]-4-methyoxycarbonyl-phenylsulfonamide]	10.1

Same assay, conditions: Homo sapiens, HCT-116, 72 hr exposure

Compound	IC50 [µM]
O=C(NS(=O)(=O)c1ccc(-c2ccco2)cc1)c1ccc(Cl)cc1Cl [Example 121, N-[2,4-dichloro-benzoyl]-4-furan-2-yl-phenylsulfonamide]	24.5
O=C(NS(=O)(=O)c1ccc(F)c(Cl)c1)c1ccc(Cl)cc1Cl [Example 9, N-[2,4-dichlorobenzoyl]-3-chloro-4-fluorophenylsulfonamide]	1.7
O=C(NS(=O)(=O)c1ccc(Br)cc1)c1ccc(Br)cc1Cl [Example 14, N-[2-chloro-4-bromobenzoyl]-4-bromophenylsulfonamide]	40
Cc1ccc(C(=O)NS(=O)(=O)c2ccc(F)c(Cl)c2)c(Cl)c1 [Example 59, N-[2-chloro-4-methylbenzoyl]-3-chloro-4-fluorophenyl-sulfonamide]	15
CCSc1ccc(S(=O)(=O)NC(=O)c2ccc(Cl)cc2Cl)cc1 [Example 62, N-[2,4-dichlorobenzoyl]-4-ethylthiophenyl-sulfonamide]	19.3
Cc1cccc(S(=O)(=O)NC(=O)c2ccc(C(F)(F)F)cc2C(F)(F)F)c1 [Example 50, N-[2,4-bis-trifluoromethylbenzoyl]-3-methylphenylsulfonamide]	10.5
Cc1ccc(S(=O)(=O)NC(=O)c2ccc(Cl)cc2Cl)cc1Cl [Example 89, N-[2,4-dichlorobenzoyl]-3-chloro-4-methylphenylsulfonamide]	4.8
Cc1cc(Cl)ccc1C(=O)NS(=O)(=O)c1ccc(Cl)c(Cl)c1 [Example 104, N-[2-methyl-4-chlorobenzoyl]-3,4-dichlorophenylsulfonamide]	22.2
Cc1cc(Br)ccc1C(=O)NS(=O)(=O)c1ccc(F)c(Cl)c1 [Example 35, N-[2-methyl-4-bromobenzoyl]-3-chloro-4-fluorophenylsulfonamide]	17
Cc1cc(Cl)ccc1C(=O)NS(=O)(=O)c1ccccc1 [Example 60, N-[2-methyl-4-chlorobenzoyl]-phenylsulfonamide]	6.6
O=C(NS(=O)(=O)c1ccc(-c2cccc3cccnc23)cc1)c1ccc(Cl)cc1Cl [Example 124, N-[2,4-dichlorobenzoyl]-4-quinolin-8-yl-phenylsulfonamide]	5.6
Cc1cc(Br)ccc1C(=O)NS(=O)(=O)c1ccc(Br)cc1 [Example 100, N-[2-methyl-4-bromobenzoyl]-4-bromophenylsulfonamide]	9.2
Cc1cccc(C(=O)NS(=O)(=O)c2ccc(Cl)cc2)c1Cl [Example 102, N-[2-chloro-3-methylbenzoyl]-4-chlorophenylsulfonamide]	6.3
CC(C)(C)c1ccc(S(=O)(=O)NC(=O)c2ccc(Cl)cc2Cl)cc1 [Example 88, N-[2,4-dichlorobenzoyl]-4-tert-butylphenylsulfonamide]	4.8
CSc1ccc(S(=O)(=O)NC(=O)c2ccc(Cl)cc2Cl)cc1 [Example 87, N-[2,4-dichlorobenzoyl]-4-methylthiophenylsulfonamide]	5.5
O=C(NS(=O)(=O)c1ccc(F)cc1)c1ccc(Br)cc1Cl [Example 16, N-[2-chloro-4-bromobenzoyl]-4-fluorophenylsulfonamide]	3.8
O=C(NS(=O)(=O)c1cccc(Cl)c1)c1ccc(Br)cc1Cl [Example 17, N-[2-chloro-4-bromobenzoyl]-3-chlorophenylsulfonamide]	15.8
O=C(NS(=O)(=O)c1ccc(Cl)cc1)c1ccc(C(F)(F)F)cc1C(F)(F)F [Example 99, N-[2,4-bis-trifluoromethylbenzoyl]-4-chlorophenylsulfonamide]	33.5
COC(=O)c1cc(S(=O)(=O)NC(=O)c2ccc(Cl)cc2Br)ccc1OC [Example 32, N-[2-bromo-4-chlorobenzoyl]-3-methoxycarbonyl-4-methoxyphenylsulfonamide]	7.8
O=C(NS(=O)(=O)c1ccc(Cl)c(Cl)c1)c1ccc([N+](=O)[O-])cc1Cl [Example 21, N-[2-chloro-4-nitrobenzoyl]-3,4-dichlorophenyl-sulfonamide]	30.4
CC(C)(C)c1ccc(S(=O)(=O)NC(=O)c2ccc(Cl)cc2Br)cc1 [Example 33, N-[2-bromo-4-chlorobenzoyl]-4-tert-butylphenylsulfonamide]	7.8

Compound	IC50 [µM]
Cc1cc(Br)ccc1C(=O)NS(=O)(=O)c1ccc(I)cc1 [Example 36, N-[2-methyl-4-bromobenzoyl]-4-iodophenylsulfonamide]	28.4
Cc1cc(Cl)ccc1C(=O)NS(=O)(=O)c1ccc(Cl)cc1 [Example 93, N-[2-methyl-4-chlorobenzoyl]-4-chlorophenylsulfonamide]	18.1
O=C(NS(=O)(=O)c1ccc(F)cc1)c1ccc(C(F)(F)F)cc1C(F)(F)F [Example 46, N-[2,4-bis-trifluoromethylbenzoyl]-4-fluorophenylsulfonamide]	4.8
CS(=O)(=O)Oc1ccc(S(=O)(=O)NC(=O)c2ccc(Cl)cc2Cl)cc1 [Example 95, N-[2,4-dichlorobenzoyl]-4-methylsulfonyloxyphenyl-sulfonamide]	4.3
O=C(NS(=O)(=O)c1ccc(OC(F)(F)F)cc1)c1ccc(Cl)cc1Cl [Example 96, N-[2,4-dichlorobenzoyl]-4-trifluoromethoxyphenyl-sulfonamide]	34.7
Cc1cc(Cl)ccc1C(=O)NS(=O)(=O)c1ccc(OC(F)(F)F)cc1 [Example 51, N-[2-methyl-4-chlorobenzoyl]-4-trifluoromethoxy-phenylsulfonamide]	26.7
Cc1cc(Cl)ccc1C(=O)NS(=O)(=O)c1cccc(Br)c1 [Example 90, N-[2-methyl-4-chlorobenzoyl]-3-bromophenylsulfonamide]	4.5
Cc1cc(Cl)ccc1C(=O)NS(=O)(=O)c1ccc(F)c(F)c1 [Example 57, N-[2-methyl-4-chlorobenzoyl]-3,4-difluorophenyl-sulfonamide]	5
CCSc1ccc(S(=O)(=O)NC(=O)c2ccc(Br)cc2C)cc1 [Example 61, N-[2-methyl-4-bromobenzoyl]-4-ethylthiophenyl-sulfonamide]	14.2
CC(C)(C)c1ccc(S(=O)(=O)NC(=O)c2ccc(Br)cc2Br)cc1 [Example 5, N-[2,4-dibromobenzoyl]-4-tert-butylphenylsulfonamide]	3.8
O=C(NS(=O)(=O)c1ccc(Cl)cc1)c1ccc([N+](=O)[O-])cc1Cl [Example 10, N-[2-chloro-4-nitrobenzoyl]-4-chlorophenylsulfonamide]	12.1
COc1ccc(S(=O)(=O)NC(=O)c2ccc(Cl)cc2C)cc1 [Example 41, N-[2-methyl-4-chlorobenzoyl]-4-methoxyphenylsulfonamide]	14.5
O=C(NS(=O)(=O)c1ccc(Br)cc1)c1ccc(Cl)cc1Cl [Example 94, N-[2,4-dichlorobenzoyl]-4-bromophenylsulfonamide]	3.6
Cc1ccc(S(=O)(=O)NC(=O)c2ccc(Cl)cc2Cl)cc1 [Example 86, N-[2,4-dichlorobenzoyl]-4-methylphenylsulfonamide]	1.6
O=C(NS(=O)(=O)c1ccccc1)c1ccc(Br)cc1Cl [Example 11, N-[2-chloro-4-bromobenzoyl]-phenylsulfonamide]	5.5
O=C(NS(=O)(=O)c1ccc(Br)c(Br)c1)c1ccc(Cl)cc1Cl [Example 24, N-[2,4-dichlorobenzoyl]-3,4-dibromophenylsulfonamide]	37.1
Cc1cc(Cl)ccc1C(=O)NS(=O)(=O)c1cccc(C#N)c1 [Example 106, N-[2-methyl-4-chlorobenzoyl]-3-cyanophenylsulfonamide]	4.6
Cc1cccc(S(=O)(=O)NC(=O)c2ccc(Br)cc2C)c1 [Example 37, N-[2-methyl-4-bromobenzoyl]-3-methylphenylsulfonamide]	15.5
O=C(NS(=O)(=O)c1ccc([N+](=O)[O-])cc1)c1ccc(Cl)cc1Cl [Example 103, N-[2,4-dichlorobenzoyl]-4-nitrophenylsulfonamide]	11.9
O=C(NS(=O)(=O)c1ccc(Br)cc1)c1ccc([N+](=O)[O-])cc1Cl [Example 15, N-[2-chloro-4-nitrobenzoyl]-4-bromophenylsulfonamide]	10.4
O=C(NS(=O)(=O)c1ccc(Br)cc1)c1ccc(C(F)(F)F)cc1C(F)(F)F [Example 49, N-[2,4-bis-trifluoromethylbenzoyl]-4-bromophenylsulfonamide]	14.7

Tested on: not given
Assay: not given
Conditions: not given

Compound	melting point [°C]
O=C(NS(=O)(=O)c1ccc(O)cc1)c1ccc(Cl)cc1Cl [Example 117, N-[2,4-dichlorobenzoyl]-4-hydroxyphenylsulfonamide]	155 to 157

From US7183320B2, “Benzoylsulfonamides and sulfonylbenzamidines for use as antitumour agents” (Eli Lilly and Company, priority 2002, dated 2007)
